For 32 compounds, EC50 results are on record in patent publication US8309577B2, “Quinuclidine compounds as α-7 nicotinic acetylcholine receptor ligands” (Bristol-Myers Squibb Company, priority 2008, dated 2012).

Molecules are shown by their SMILES. Some results are limits rather than exact numbers.

This test deals with T1, α-7 nicotinic acetylcholine receptor channel expressed in HEK 293 cells (Rattus norvegicus, UniProt Q05941).
T1 construct: expressed in transfected cells
In words: Ca2+-sensitive fluorescence-based FLIPR assay, α7 nicotinic ACh receptor channel function (agonist). The format is cell-based. The following applies: Table 1, HEK 293 cells, agonist Ca2+ flux. In a few lines: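 Potency and efficacy derived from kinetic FLIPR Ca²⁺-flux fluorescence, recorded 3 min after compound addition in Hanks buffer following a 10 s baseline.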
(Calcium flux is commonly read through the fluorescence of an indicator in the cells.)

Where [1] appears, read: FLIPR α7 activity rating (EC50, nM).

T1 sequence (Q05941 23-502): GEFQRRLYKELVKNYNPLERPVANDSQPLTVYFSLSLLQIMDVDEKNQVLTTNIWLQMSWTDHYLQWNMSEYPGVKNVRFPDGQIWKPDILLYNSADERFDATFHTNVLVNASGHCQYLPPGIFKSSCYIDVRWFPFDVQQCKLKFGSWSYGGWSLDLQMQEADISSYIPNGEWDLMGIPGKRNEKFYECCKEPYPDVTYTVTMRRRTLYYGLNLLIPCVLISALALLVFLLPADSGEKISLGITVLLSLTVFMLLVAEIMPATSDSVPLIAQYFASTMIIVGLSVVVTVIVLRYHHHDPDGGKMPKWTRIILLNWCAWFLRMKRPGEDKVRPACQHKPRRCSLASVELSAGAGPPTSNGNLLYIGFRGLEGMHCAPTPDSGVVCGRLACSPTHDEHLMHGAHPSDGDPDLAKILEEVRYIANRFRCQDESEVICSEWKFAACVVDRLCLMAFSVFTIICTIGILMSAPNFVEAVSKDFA

By EC50 is commonly meant the concentration giving half of the maximal effect. Read a low EC50 as higher potency in that assay. Consider `Brc1cnc(NC2=NC[C@@]3(CN4CCC3CC4)O2)nc1C1CC1` [Example 210], for which the EC50 reads like this: (FLIPR α7 (EC50, nM)) 9 nM; under setting [1], < 100 nM.

As to `COc1ccc2c(NC3=NC[C@@]4(CN5CCC4CC5)O3)nn(C)c2c1` [Example 211], the 50% effective concentration (EC50) under setting [1] was in the range of 100 to 1000 nM. `COc1ccc2c(c1)c(NC1=NC[C@@]3(CN4CCC3CC4)O1)nn2C` [Example 212] gave an EC50 under setting [1] of 1000 to 100000 nM. As to `Clc1cnc(NC2=NC[C@@]3(CN4CCC3CC4)O2)nc1` [Example 213], the EC50 is 9 nM (FLIPR α7 (EC50, nM)) and < 100 nM under setting [1]. As to `Clc1ccc(NC2=NC[C@@]3(CN4CCC3CC4)O2)nc1` [Example 214], the EC50 under setting [1] is < 100 nM. In the case of `Clc1ccnc(NC2=NC[C@@]3(CN4CCC3CC4)O2)c1` [Example 215], under setting [1], the EC50 is < 100 nM. The same measure, in the same setting: the figure for `CC(C)Oc1cnc(NC2=NC[C@@]3(CN4CCC3CC4)O2)cn1` [Example 216] is 1000 to 100000 nM; for `CN1CCCC1c1ccc(NC2=NC[C@@]3(CN4CCC3CC4)O2)nc1` (some centres unmarked) [Example 217] it is 1000 to 100000 nM. Take `COCc1cc(NC2=NC[C@@]3(CN4CCC3CC4)O2)ncn1` [Example 218, (R)—N-(6-(methoxymethyl)pyrimidin-4-yl)-4H-1′-azaspiro[oxazole-5,3′-bicyclo[2.2.2]octan]-2-amine]: the EC50 is 285 nM (FLIPR α7 (EC50, nM)) and 100 to 1000 nM under setting [1].

For `c1nc(NC2=NC[C@@]3(CN4CCC3CC4)O2)ncc1OC1CCCC1` [Example 219, (R)—N-(5-(Cyclopentyloxy)pyrimidin-2-yl)-4H-1′-azaspiro[oxazole-5,3′-bicyclo[2.2.2]octan]-2-amine], under setting [1], the EC50 fell in the range of 1000 to 100000 nM.

Take `CC(C)c1cc2c(NC3=NC[C@@]4(CN5CCC4CC5)O3)ncnc2s1` [Example 223]: the concentration giving a half-maximal response (EC50) under setting [1] lay in the range of 100 to 1000 nM. Under setting [1], `CCc1cnc(NC2=NC[C@@]3(CN4CCC3CC4)O2)nc1` [Example 227] showed an EC50 of 100 to 1000 nM.

Regarding `FC(F)(F)COc1cc(NC2=NC[C@@]3(CN4CCC3CC4)O2)ncn1` [Example 228, (R)—N-(6-(2,2,2-Trifluoroethoxy)pyrimidin-4-yl)-4H-1′-azaspiro[oxazole-5,3′-bicyclo[2.2.2]octan]-2-amine], the EC50 under setting [1] was < 100 nM. Turning to `CC(C)c1nc(NC2=NC[C@@]3(CN4CCC3CC4)O2)ncc1Br` [Example 229, (R)—N-(5-Bromo-4-isopropylpyrimidin-2-yl)-4H-1′-azaspiro[oxazole-5,3′-bicyclo[2.2.2]octan]-2-amine], the EC50 under setting [1] is < 100 nM.

As to `Brc1cnc(NC2=NC[C@@]3(CN4CCC3CC4)O2)nc1-c1cccnc1` [Example 230, (R)—N-(5-Bromo-4-(pyridin-3-yl)pyrimidin-2-yl)-4H-1′-azaspiro[oxazole-5,3′-bicyclo[2.2.2]octan]-2-amine], the half-maximal effective concentration (EC50) under setting [1] is < 100 nM. Still for that read-out and setting: the figure for `c1nc(NC2=NC[C@@]3(CN4CCC3CC4)O2)cc(OC2CCCC2)n1` [Example 231, (R)—N-(6-(Cyclopentyloxy)pyrimidin-4-yl)-4H-1′-azaspiro[oxazole-5,3′-bicyclo[2.2.2]octan]-2-amine] is 100 to 1000 nM; for `CC(C)Oc1cc(NC2=NC[C@@]3(CN4CCC3CC4)O2)ncn1` [Example 232, (R)—N-(6-Isopropoxypyrimidin-4-yl)-4H-1′-azaspiro[oxazole-5,3′-bicyclo[2.2.2]octan]-2-amine] it is 100 to 1000 nM. Still for that read-out and setting: the figure for `c1cc(NC2=NC[C@@]3(CN4CCC3CC4)O2)ccn1` [Example 235, (R)—N-(Pyridin-4-yl)-4H-1′-azaspiro[oxazole-5,3′-bicyclo[2.2.2]octan]-2-amine] is 1000 to 100000 nM. Same read-out and setting: the figure for `c1ccc(COc2ccc3nc(NC4=NC[C@@]5(CN6CCC5CC6)O4)sc3n2)cc1` [Example 236, (R)—N-(5-(Benzyloxy)thiazolo[5,4-b]pyridin-2-yl)-4H-1′-azaspiro[oxazole-5,3′-bicyclo[2.2.2]octan]-2-amine] is 1000 to 100000 nM; for `O=c1ccc2nc(NC3=NC[C@@]4(CN5CCC4CC5)O3)sc2[nH]1` [Example 237, (R)-2-(4H-1′-azaspiro[oxazole-5,3′-bicyclo[2.2.2]octane]-2-ylamino)thiazolo[5,4-b]pyridin-5(4H)-one] it is < 100 nM. With `c1ccc(Oc2cc(NC3=NC[C@@]4(CN5CCC4CC5)O3)ncn2)cc1` [Example 240, (R)—N-(6-Phenoxypyrimidin-4-yl)-4H-1′-azaspiro[oxazole-5,3′-bicyclo[2.2.2]octan]-2-amine], the EC50 under setting [1] was 100 to 1000 nM. On the same count and under the same terms, the figure for `COc1ccc2ncc(NC3=NC[C@@]4(CN5CCC4CC5)O3)nc2c1` [Example 241, (R)—N-(7-methoxyquinoxalin-2-yl)-4H-1′-azaspiro[oxazole-5,3′-bicyclo[2.2.2]octan]-2-amine] is 1000 to 100000 nM. On the same count and under the same terms, the figure for `Cc1ccc2nc(NC3=NC[C@@]4(CN5CCC4CC5)O3)cnc2c1` [Example 242, (R)—N-(6-Methylquinoxalin-2-yl)-4H-1′-azaspiro[oxazole-5,3′-bicyclo[2.2.2]octan]-2-amine] is 100 to 1000 nM; for `Cc1ccc2ncc(NC3=NC[C@@]4(CN5CCC4CC5)O3)nc2c1` [Example 243, (R)—N-(7-Methylquinoxalin-2-yl)-4H-1′-azaspiro[oxazole-5,3′-bicyclo[2.2.2]octan]-2-amine] it is 1000 to 100000 nM. For the compound `c1cncc(-c2cc(NC3=NC[C@@]4(CN5CCC4CC5)O3)ncn2)c1` [Example 244, (R)—N-(6-(Pyridin-3-yl)pyrimidin-4-yl)-4H-1′-azaspiro[oxazole-5,3′-bicyclo[2.2.2]octan]-2-amine], the EC50 under setting [1] was < 100 nM. Regarding `COc1ncc(-c2cc(NC3=NC[C@@]4(CN5CCC4CC5)O3)ncn2)cn1` [Example 245, (R)—N-(2′-Methoxy-4,5′-bipyrimidin-6-yl)-4H-1′-azaspiro[oxazole-5,3′-bicyclo[2.2.2]octan]-2-amine], the EC50 under setting [1] is < 100 nM.

`c1cc(-c2cc(NC3=NC[C@@]4(CN5CCC4CC5)O3)ncn2)ccn1` [Example 246, (R)—N-(6-(Pyridin-4-yl)pyrimidin-4-yl)-4H-1′-azaspiro[oxazole-5,3′-bicyclo[2.2.2]octan]-2-amine]: the EC50 under setting [1] was < 100 nM. The same measure, in the same setting: the figure for `Cc1nc(NC2=NC[C@@]3(CN4CCC3CC4)O2)ccc1C#N` [Example 247, (R)-6-(4H-1′-Azaspiro[oxazole-5,3′-bicyclo[2.2.2]octane]-2-ylamino)-2-methylnicotinonitrile] is 100 to 1000 nM; for `Cc1cc(NC2=NC[C@@]3(CN4CCC3CC4)O2)nc(C)c1C#N` [Example 248, (R)-6-(4H-1′-Azaspiro[oxazole-5,3′-bicyclo[2.2.2]octane]-2-ylamino)-2,4-dimethylnicotinonitrile] it is 100 to 1000 nM. The same measure, in the same setting: the figure for `c1ccc(-c2ccc(NC3=NC[C@@]4(CN5CCC4CC5)O3)nn2)cc1` [Example 249, (R)—N-(6-Phenylpyridazin-3-yl)-4H-1′-azaspiro[oxazole-5,3′-bicyclo[2.2.2]octan]-2-amine] is 1000 to 100000 nM.

Turning to `Clc1ccc(NC2=NC[C@@]3(CN4CCC3CC4)O2)nc1Cl` [Example 251, (R)—N-(5,6-Dichloropyridin-2-yl)-4H-1′-azaspiro[oxazole-5,3′-bicyclo[2.2.2]octan]-2-amine], under setting [1], the EC50 was < 100 nM. Same read-out and setting: the figure for `Clc1cnc(NC2=NC[C@@]3(CN4CCC3CC4)O2)cc1Cl` [Example 252, (R)—N-(4,5-Dichloropyridin-2-yl)-4H-1′-azaspiro[oxazole-5,3′-bicyclo[2.2.2]octan]-2-amine] is < 100 nM.
